One compound from paper PMC4735018, “De Novo Evolutionary Emergence of a Symmetrical Protein Is Shaped by Folding Constraints” (Cell, 2016) can be followed below.

The test system of one experiment is T1, AncB1B.
T1 construct: single ancestral motif of about 47 residues, blade frame, first-library variant with F23L from error-prone PCR; homo-pentamer; E. coli (pET29), GlcNAc-resin purified
Put plainly: isothermal titration calorimetry. The following applies: 25 °C, 20 mM Tris, 150 mM NaCl, pH 7.6; 10 µM propeller; single site model, five near-identical non-cooperative sites. The class given is binding, synthetic construct. (In general: In ITC the heat of successive injections is recorded.)

For another experiment, the system named is T2, AncA1B.
T2 construct: single ancestral motif of about 47 residues, blade frame, from second ancestral library; homo-pentamer; E. coli (pET29), GlcNAc-resin purified
Put plainly: isothermal titration calorimetry. The class given is binding, synthetic construct. To be noted: 25 °C, 20 mM Tris, 150 mM NaCl, pH 7.6; 10 µM propeller; single site model, five near-identical non-cooperative sites.

For `CC(=O)N[C@H]1C(O)O[C@H](CO)[C@@H](O)[C@@H]1O` (some centres unmarked) [GlcNAc], the binding affinity entry is “The earliest evolutionary stage of single motifs was sampled using AncA1B and AncB1B” with AncB1B; “five different parameters were measured for representative variants along the evolutionary trajectory” in the experiment on AncA1B.
